Here are results for 23 molecules from patent US5516797A, “Immunosuppressive compounds” (Vertex Pharmaceuticals, Incorporated, priority 1994, dated 1996).

One may read the IC50 as the concentration that inhibits the measured activity by half.

The subject of test [1] is human peripheral blood lymphocytes. Description: Mitogenesis assay OKT3: inhibition of proliferation of human PBLs. The test is classed as cell-based. As to conditions: Lymphocyte, OKT3 (10^-4 dilution final), 48 h incubation. An outline of the steps: (§1)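 Human PBLs from normal donors, isolated over Histopaque 1077 and cultured in RPMI 1640 with 10% heat-inactivated FCS, were stimulated with PMA or OKT3 mitogen in the presence of compound (DMSO stocks). After 48 h at 37 °C and 5% CO2, cells were pulsed with 1 μCi ³H-thymidine and harvested 24 h later for scintillation counting.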

Test [2] concerns the target T1, FK-506 binding protein (FKBP) (Homo sapiens, UniProt P62942). Description: Inhibition of PPIase (rotamase) enzyme activity of FKBP (apparent Ki). The test is classed as biochemical. As to conditions: substrate N-succinylAla-Ala-Pro-Phe-p-nitroanilide, chymotrypsin-coupled. An outline of the steps:
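Cis-trans isomerization of N-succinyl-Ala-Ala-Pro-Phe-p-nitroanilide was followed spectrophotometrically in a chymotrypsin-coupled assay releasing 4-nitroanilide from the trans substrate. Apparent Ki came from the change in first-order rate constant across inhibitor concentrations.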

For test [3], the system named is PBLs stimulated with LB human viral transformed B lymphoblastoid cells. Description: MLR bioassay LB: inhibition of proliferation in mixed lymphocyte reaction. It is filed as cell-based. As to conditions: Lymphoblastoid cell, pulsed on day 6, harvested 24 h later. An outline of the steps: (§2)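 Fresh human PBLs (5×10^4) stimulated with 5×10^3 Mitomycin C-treated allogeneic EBV-transformed B lymphoblastoid cells in RPMI 1640 with 10% FCS, with or without compound (DMSO stocks). Pulsed on day 6, harvested 24 h later and counted.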

Test [4] concerns the target T1, FK-506 binding protein (FKBP). The test can be described thus: Competitive binding to FKBP against [3H]dihydro-FK-506 (apparent Kd). As to conditions: competition with [3H]dihydro-FK-506.
The subject of test [5] is PBLs stimulated with JVM human viral transformed B lymphoblastoid cells. Description: MLR bioassay JVM: inhibition of proliferation in mixed lymphocyte reaction. It is filed as cell-based. The following applies: Lymphoblastoid cell, pulsed on day 6, harvested 24 h later. Summed up: as §2
Test [6] relates to human peripheral blood lymphocytes. Description: Mitogenesis assay PMA: inhibition of proliferation of human PBLs. It is filed as cell-based. As to conditions: Lymphocyte, PMA (10 ng/ml) plus ionomycin (250 ng/ml), 48 h incubation. An outline of the steps: as §1

SMILES strings stand for the structures.

T1 sequence (P62942 whole entry): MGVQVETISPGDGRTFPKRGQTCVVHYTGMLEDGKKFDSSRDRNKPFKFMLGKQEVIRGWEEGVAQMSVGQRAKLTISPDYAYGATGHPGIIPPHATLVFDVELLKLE

`COc1cc(C(=O)C(=O)N2CCCC[C@H]2C(=O)OCc2ccccc2)cc(OC)c1OC` [Compound 13]: the IC50 was 5.9 µM in test [1], > 10 µM in test [3], > 10 µM in test [5] and > 10 µM in test [6]. For the same molecule, the Ki in test [2] came out at 0.1 µM. In addition, in test [4], the Kd was determined as 2 µM.

As for `O=C(C(=O)N1CCCC[C@H]1C(=O)OCc1ccccc1)c1ccc([N+](=O)[O-])cc1` [Compound 16], the IC50 in test [1], in test [3], in test [5] and in test [6] was > 10 µM throughout. For the same molecule, in test [2], the Ki turned out to be 160 µM. In test [4], the Kd came to 100 µM.

Regarding `O=C(C(=O)N1CCCC[C@H]1C(=O)OCc1ccccc1)c1cccs1` [Compound 22], the IC50 in test [1], in test [3], in test [5] and in test [6] was > 10 µM in each case. Further, in test [2], the Ki was found to be 0.8 µM. Further, the Kd in test [4] was found to be 4 µM.

As to `O=C(C(=O)N1CCCC[C@H]1C(=O)OCc1ccccc1)C1CCCCC1` [Compound 40], the half-maximal inhibitory concentration (IC50) was 1 µM in test [1], > 10 µM in test [3], > 10 µM in test [5] and 7 µM in test [6]. Also, the Ki in test [2] was found to be 1.3 µM. The Kd in test [4] was 3 µM.

Consider `O=C(OCc1ccccc1)[C@@H]1CCCCN1C(=O)C(=O)C1(O)CCCCC1` [Compound 46], for which the IC50 in test [1], in test [3], in test [5] and in test [6] was > 10 µM each time. Besides, in test [2], the Ki amounted to 1 µM. In addition, in test [4], the Kd turned out to be 2 µM.

With `O=C(C(=O)N1CCCC[C@H]1C(=O)OCc1ccccc1)c1ccc2ccccc2c1` [Compound 47], the IC50 in test [1], in test [3], in test [5] and in test [6] was > 10 µM throughout. Further, the Ki in test [2] worked out at 1.5 µM. In addition, the Kd in test [4] amounted to 0.3 µM.

Consider `O=C(C(=O)N1CCCC[C@H]1C(=O)OCc1ccccc1)c1cccc2ccccc12` [Compound 48], for which the 50% inhibitory concentration (IC50) in test [1], in test [3], in test [5] and in test [6] was > 10 µM each time. In addition, the Ki in test [2] stood at 1 µM. Moreover, the Kd in test [4] was found to be 2 µM.

With `C[C@H](OC(=O)[C@@H]1CCCCN1C(=O)C(=O)c1ccccc1)c1ccccc1` [Compound 49], the IC50 in test [1] is 6.2 µM; in test [3] it was > 10 µM; in test [5], > 10 µM; in test [6] it was > 10 µM. Besides, the Ki in test [2] was determined as 0.5 µM. Also, the Kd in test [4] was determined as 0.6 µM.

For `O=C(C(=O)N1CCCC[C@H]1C(=O)OCc1ccccc1)c1cccc(C(F)(F)F)c1` [Compound 52], the IC50 in test [1], in test [3], in test [5] and in test [6] was > 10 µM throughout. In addition, in test [2], the Ki amounted to 1.5 µM. In addition, the Kd in test [4] worked out at 1.3 µM.

`O=C(C(=O)N1CCCC[C@H]1C(=O)OCc1ccccc1)c1cccc(OCc2ccccc2)c1` [Compound 53]: the concentration for half-maximal inhibition (IC50) in test [1] was 8 µM; in test [3], > 10 µM; in test [5], > 10 µM; in test [6], > 10 µM. Moreover, the Ki in test [2] turned out to be 0.5 µM. The Kd in test [4] came out at 0.2 µM.

Take `O=C(C(=O)N1CCCC[C@H]1C(=O)OCc1cccc(Oc2ccccc2)c1)c1ccccc1` [Compound 62]: the IC50 is > 10 µM in test [1], > 10 µM in test [3], > 10 µM in test [5] and 6.5 µM in test [6]. Moreover, in test [2], the Ki is 0.09 µM. Moreover, in test [4], the Kd worked out at 0.15 µM.

For the molecule `COc1cc(C(=O)C(=O)N2CCCC[C@H]2C(=O)OCCCCCCc2ccccc2)cc(OC)c1OC` [Compound 71], the IC50 in test [1] is 5.5 µM; in test [3], 7.5 µM; in test [5], 8 µM; in test [6], 5 µM. Also, in test [2], the Ki was determined as 0.1 µM. The Kd in test [4] was determined as 0.05 µM.

For `COc1cc(C(=O)C(=O)N2CCCC[C@H]2C(=O)OCCCCCCC2CCCCC2)cc(OC)c1OC` [Compound 72], the IC50 is > 10 µM in test [1], > 10 µM in test [3], > 10 µM in test [5] and 9 µM in test [6]. Moreover, the Ki in test [2] was determined as 0.05 µM. In test [4], the Kd turned out to be 0.5 µM.

As to `COc1cc(C(=O)C(=O)N2CCCC[C@H]2C(=O)OCCCCCC2CCCCC2)cc(OC)c1OC` [Compound 74], the IC50 stood at 9 µM in test [1], 10 µM in test [3], 10 µM in test [5] and 8 µM in test [6]. Moreover, in test [2], the Ki was determined as 0.09 µM. Moreover, the Kd in test [4] came out at 0.08 µM.

Regarding `COc1cc(C(=O)C(=O)N2CCCC[C@H]2C(=O)OCCCCc2ccc(I)cc2)cc(OC)c1OC` [Compound 77], the IC50 in test [1] was determined as 8 µM; in test [3] it was 6 µM; in test [5], 7 µM; in test [6], 4.5 µM. In addition, in test [2], the Ki stood at 0.016 µM. The Kd in test [4] worked out at 0.06 µM.

With `O=C(C(=O)N1CCCC[C@H]1C(=O)OCCCCc1ccccc1)c1ccc(I)cc1` [Compound 81], the IC50 in test [1] is > 10 µM; in test [3] it was > 10 µM; in test [5] it was > 10 µM; in test [6] it was 7 µM. In addition, the Ki in test [2] is 0.8 µM. For the same molecule, in test [4], the Kd stood at 0.25 µM.

For `O=C(C(=O)N1CCCC[C@H]1C(=O)OCCCCc1ccccc1)c1cccc(I)c1` [Compound 82], the half-maximal inhibitory concentration (IC50) is > 10 µM in test [1], > 10 µM in test [3], > 10 µM in test [5] and 10 µM in test [6]. For the same molecule, the Ki in test [2] was 0.13 µM. For the same molecule, in test [4], the Kd was 0.2 µM.

Regarding `C=CCOC(=O)Nc1ccc(CCCOC(=O)[C@@H]2CCCCN2C(=O)C(=O)c2cc(OC)c(OC)c(OC)c2)cc1` [Compound 88], the IC50 came to 2.2 µM in test [1], 2.5 µM in test [3], 4.5 µM in test [5] and 2.2 µM in test [6]. For the same molecule, the Ki in test [2] worked out at 0.011 µM. In test [4], the Kd stood at 0.07 µM.

Consider `COc1ccc(C=CCCOC(=O)[C@@H]2CCCCN2C(=O)C(=O)c2cc(OC)c(OC)c(OC)c2)cc1` [Compound 90], for which the IC50 in test [1] was > 10 µM; in test [3], > 10 µM; in test [5] it was > 10 µM; in test [6] it was 8 µM. Also, the Ki in test [2] stood at 0.011 µM. Besides, in test [4], the Kd was 0.6 µM.

Take `COc1cc(C(=O)C(=O)N2CCCC[C@H]2C(=O)OCCCc2cn(C=O)c3ccccc23)cc(OC)c1OC` [Compound 93]: the IC50 in test [1] stood at 7 µM; in test [3], 10 µM; in test [5], 8.7 µM; in test [6], 6 µM. For the same molecule, the Ki in test [2] was 0.015 µM. In addition, the Kd in test [4] amounted to 0.06 µM.

Turning to `COc1cc(C(=O)C(=O)N2CCCC[C@H]2C(=O)OCCCCc2c[nH]c3ccccc23)cc(OC)c1OC` [Compound 94], the IC50 in test [1] was 5.5 µM; in test [3], > 10 µM; in test [5], 7 µM; in test [6] it was 5 µM. Also, the Ki in test [2] turned out to be 0.016 µM. The Kd in test [4] is 0.05 µM.

For `O=C(C(=O)N1CCCC[C@H]1C(=O)OCCCCc1ccccc1)c1cccc(-c2ccccc2)c1` [Compound 96], the IC50 in test [1], in test [3], in test [5] and in test [6] was > 10 µM in each case. Also, the Ki in test [2] is 0.04 µM. In test [4], the Kd was determined as 0.033 µM.

With `O=C(C(=O)N1CCCC[C@H]1C(=O)OCCCCc1ccccc1)C1CCCCC1` [Compound 98], the concentration for half-maximal inhibition (IC50) in test [1], in test [3], in test [5] and in test [6] was > 10 µM throughout. Besides, in test [2], the Ki is 0.08 µM. Also, the Kd in test [4] amounted to 0.18 µM.
